The text below walks through data of patent US12555809B2, “Additives for fluorenone/fluorenol based aqueous redox flow batteries” (Battelle Memorial Institute, priority 2021, dated 2026).

Data set [1] is described as follows: PFG NMR diffusion coefficients (1H, 23Na). Conditions: for D(Na^+): 23Na PFG NMR at 25° C. Type of data set: physicochemical. Here is the method: Nuclear magnetic resonance spectroscopy: NMR spectra were either collected on a 500 MHz Oxford NMR spectrometer at 25° C. (the system consists of an Oxford AS500 magnet connected to an Agilent Technologies console), or collected on a 400 MHz NMR spectrometer (Bruker 400 MHz Avance III NMR with NanoBay console, equipped with a SampleCase™ autosampler using IconNMR automation. Probe: BBFO 5 mm SmartProbe sensor). Chemical shifts were reported in ppm with the solvent resonance as the internal standard (DMSO, δ=2.50; D2O, δ=4.70; CDCl3, δ=7.26).

A short description of data set [2]: Small-angle X-ray scattering (SAXS) cluster size. Type of data set: physicochemical. Conditions: for Diameter: SAXS. The text has this: Small-angle X-ray scattering: Synchrotron SAXS technique is a powerful technique to measure the size of dissolved molecules, clusters, and suspended particles. SAXS resolves the particle size and shape over a wide range of sizes from several Å to hundreds of nm. Considering the small sizes and low electron contrast of β-CD, FL and FLOH relative to solution, there was a focus on collecting data from a scattering vector, q, of 0.05 to 2 Å-1. Small-angle X-ray scattering (SAXS) data was acquired at beamline 12-ID-B of the APS. A constant incident photon energy of 13.3 keV (λ=0.9322 Å) was used to measure samples in transmission through a 2-mm ID silica capillary (Charles Supper SiO2 capillaries, 10 μm wall thickness). Sample-to-detector distance was calibrated using a silver behenate standard. 2D images were recorded using a Pilatus 2M detector (Dectris; pixel size 172×172 μm^2) for five frames at a 1 s exposure time each. Artifacts from static noise were subtracted using detector dark images, which were acquired every ten frames. Solution blanks were acquired identical to the suspension samples and subtracted using a scaling factor of 1. The RAW program from the BioXTAS package was used, as well as SasView and Irena, to integrate the data, average and merge scans, perform background subtractions, and to calculate pair distance distribution functions (PDDF).

The nature of data set [3]: Rotating disk electrode (RDE) study. The data set is classed as physicochemical. Conditions: 27S4CFL (5 mM) in 0.1 M β-CD/1 M NaOH. The method, then:
Rotating disk electrode (RDE) measurements (Feng et al., Science 2021, 372:836) were performed using a three-electrode configuration consisting of a glassy carbon working electrode (3 mm diameter), a carbon rod counter electrode and an Ag/AgCl reference electrode. The electrolytes of 5 mM redox-active materials in 1.0 M NaOH were used. Data were collected using a CHI potentiostat at scan rates of 5 mV/s in the potential range of −1.55V˜−0.5V vs Ag/AgCl. The rotation rates were at 300, 600, 900, 1200, 1500, 1800, 2100 and 2400 rpm. […] The Koutecky-Levich plots at different overpotentials were extrapolated to get the kinetic current ik according to the Koutecky-Levich equation:
[formula] The exchange current i0 can be obtained by fitting ik to the Tafel plot at the overpotential of zero, from which the reaction rate constant (k0) was determined according to Butler-Volmer equation: i0=nFACk0 Flow Battery Tests

The nature of data set [4]: Solubility measurement (saturated solution concentration by NMR). The data set is classed as physicochemical. Conditions: with less than 0.1 M β-CD added. Here is the method:
A general procedure was applied following below steps. First a supernatant was prepared by mixing solute and solvent with heating, stirring, and centrifugation. The resulting cooled mixture was filtered through 0.2 μm PP membrane filter. The saturated solution concentration was determined by NMR. NMR sample was prepared with mixing 100 μL of saturated solution, 50 μL of internal standard solution (1 M sodium methane sulfonate) and 950 μL D2O.

Data set [5] in a line: pKa of additive / proton acceptor (H—B) and deprotonation of β-CD in alkaline solution. Type of data set: physicochemical. Conditions: 0.1 M β-CD added to 1 M NaOH. The source says: β-(Cyclodextrin)CD was selected as model compound. Not only benefiting from the cavity containing poly-hydroxyl structure, but it also has a pKa at around 13.5, which is similar to the pKa of functionalized fluorenol, rendering a potentially strong H-bonding structure. Based on past studies (Gaidamauskas et al., Carbohydrate Research 2009, 344:250-254) and measurement of β-CD behavior in alkaline solution, this supermolecule experiences two-fold of deprotonation in 1 M NaOH. […] From a battery operation point, β-CD is notable for its redox-inert character and large molecular size, which leaves no concern of crossover and loss of catalyst. From a practical application point, the low-cost and non-toxic merit warrants feasible implementation.

Data set [6] can be described thus: Battery current response test at controlled voltage. Conditions: fully charged electrolyte, 0.9V controlled voltage discharge. Here is the method:
The battery of FIG. 13 was constructed similar to above described procedure, except that two consecutive cell stacks were employed (electrolyte flow through the two cells consecutively), one for charging and discharging, one for OCV monitoring. The battery in FIG. 18 was constructed using one cell stack, with additional pump and tubing system circulating ˜3 mL electrolyte through EPR detecting tube at 100 rpm rate. Anolyte was comprised of 12 mL 0.1 M 274FL/1 M NaOH with specified additive at 0.086 M. Catholyte was comprised of 500 mL 0.1 M ferrocyanide/0.05 M ferricyanide/1 M NaOH. Electrolyte was charged until desired SOC reached. Then the discharge current response was measured at controlled voltage of 0.9V. Each measurement was repeated 5 cycles (FIG. 13) and experiments were repeated two times in FIG. 18.

Data set [7] in a line: H-cell oxidation rate measurement (chronocoulometry). The method, then: The measurement was conducted with H-cell equipped with Hg/HgO as reference electrode and Glassy carbon electrode as working electrode (0.0707 cm^2). Carbon rod was used as counter electrode. Stir bar was equipped to facilitate mass transfer, so it is not considered as a limiting factor in the measurement of oxidation process. Chronocoulometry method was applied at specified potential for 120 s with IR compensation (CI mode on Gamry) and 1.5 s per data point. Nafion® 212 (soaked in 1 M NaOH at room temperature) was used as separator. Each data point was repeated three times. The electrolyte solution was prepared using the battery charging to specified SOC. The battery was constructed with 8 mL of 0.3 M 274FL/1 eqNaOH/1 M NaOH and 30 mL of 0.3 M potassium ferrocyanide/0.3 M potassium ferricyanide/1 M NaOH. After charged to specified SOC, the anolyte solution was diluted with 1 M NaOH to result a 15 mM active material solution. The catholyte was diluted with 1 M NaOH to result an 8.75 mM potassium ferrocyanide/28.75 mM potassium ferricyanide solution. The solution used for H-cell measurement in each compartment was 5 mL, with addition of specified amount of additive. To prepare deuterated fluorenol, the cell was constructed using NaOD/D2O for both anolyte and catholyte.
Due to well stirred solution and only 120 s measurement with small electrode area, mass transfer and SOC change influence can be considered as neglectable. Thus, a linear relationship was obtained (A condition where neglectable oxidizable material concentration change during testing period). The slope represents an oxidation rate (C/s, average current, unit A) for the solution oxidizable species during that testing period.
A heterogeneous reaction oxidation rate constant (cm/s) at a specified overpotential was calculated based on a pseudo first order reaction model (Hammerich et al., Organic electrochemistry:revised and expanded 2015, CRC Press; Markle et al., Science Advances 2018, 4: eaat5776):
[formula] here “i” unit is A(C/s), A is 0.0707 cm^2. […]

Data set [8] in a line: EPR of comproportionation mixture (FLOH + FL). The conditions noted are these: 0.001 M FLOH and 0.001 M FL 1:1, 0.001 M β-CD, 20 min after mixing. Here is the method:
Electron paramagnetic resonance spectroscopy: EPR measurements were performed on a Bruker ELEXSYS E580 spectrometer at 298 K. The electrolyte solution sample was pulled into a glass capillary (VitroTubes™, ID 0.8 mm and OD 1 mm) using a Hamilton syringe connected through nanotight fittings from Valco Instruments Co. Inc. The capillary was sealed using Critoseal™ Leica Microsystems capillary tube sealant on both ends and was further placed inside a 4 mm EPR tube with the open end sealed inside a glove box filled with nitrogen. All samples were prepared inside the glove box immediately before EPR experiments to minimize the influence of air and moisture. The typical settings for the spectra were microwave frequency=9.324 GHz, sweep time=41.94 s, time constant=5.12 ms, power=0.02 mW, field modulation amplitude=0.05 G, and sweep width=24 G for dilute solutions in order to capture the detailed hyperfine structures but the sweep width was increased to 50 G for relatively concentrated solutions to incorporate their broader line widths. Absolute spin concentrations of the samples were determined by calibration curves of the spin standard TEMPO (2,2,6,6-tetramethyl-1-piperidinyloxyl) with concentrations varying from 0.01 mM to 100 mM, and another spin standard 4-Hydroxy-TEMPO with concentrations varying from 0.1 M to 1.0 M.

The conditions of data set [9]: cited from earlier work; for H—B pKa: conjugate acid of B^-.
[10] abbreviates: ratio of diffusion coefficients.

Each structure is given as a SMILES string.

Take `O=C(O)c1cc(S(=O)(=O)O)cc2c1-c1ccc(S(=O)(=O)O)cc1C2=O` [27S4CFL, 2,7-sulfonate-4-carboxylate fluorenone]: in data set [1] (1H PFG NMR at 25° C.), the “D(FLOH or FL)” value is given as 1.92 ×10^−10 m^2/s and the “D(H2O)” value is 12.1 ×10^−10 m^2/s. Also, the “D(Na^+)” value in data set [1] is 7.60 ×10^−10 m^2/s. Also, in data set [1] (setting [10]), the “D(FLOH or FL)/D(H2O)” value turned out to be 0.16 and the “D(Na^+)/D(H2O)” value was found to be 0.63. The Diameter in data set [2] is 16.48 ± 0.21 Å Å. In addition, in data set [3], the calculated diffusion coefficient is recorded as 7.56×10^−6 cm^2/s and the “calculated kinetic reduction rate constant for the first electron” value was 0.00351 cm/s.
In the case of `O=C(O)c1cccc2c1-c1ccc(S(=O)(=O)[O-])cc1C2=O.[K+]` [4C7SFL, 4-carboxylate-7-sulfonate fluorenone/fluorenol], the solubility (usually the dissolved amount per volume that the medium holds) in data set [4] (aqueous with cosolvent or surfactant or cyclodextrin, thermodynamic from solid, read-out: measured solubility) was around 1900 mM. In data set [4], the “solubility increase compared with solubility without β-CD” value was around 30% and the “volumetric capacity corresponding to solubility” value amounted to 101.8 Ah/L.
Regarding `OC[C@H]1O[C@@H]2O[C@H]3[C@H](O)[C@@H](O)[C@@H](O[C@H]4[C@H](O)[C@@H](O)[C@@H](O[C@H]5[C@H](O)[C@@H](O)[C@@H](O[C@H]6[C@H](O)[C@@H](O)[C@@H](O[C@H]7[C@H](O)[C@@H](O)[C@@H](O[C@H]8[C@H](O)[C@@H](O)[C@@H](O[C@H]1[C@H](O)[C@H]2O)O[C@@H]8CO)O[C@@H]7CO)O[C@@H]6CO)O[C@@H]5CO)O[C@@H]4CO)O[C@@H]3CO` [β-CD, β-cyclodextrin], the “hydroxide consumption corresponding to pH decrease” value in data set [5] was determined as 0.184 M. Besides, in data set [1] (1H PFG NMR at 25° C.), the “D(H2O)” value is 13.1 ×10^−10 m^2/s and the “D(β-CD)” value was 1.57 ×10^−10 m^2/s. The “D(Na^+)” value in data set [1] is reported as 8.12 ×10^−10 m^2/s. In [1] (setting [10]), the “D(Na^+)/D(H2O)” value is 0.62 and the “D(β-CD)/D(H2O)” value stood at 0.12. Moreover, the Diameter in [2] was 11.76 ± 3.94 Å Å. In data set [2] (SAXS RDFs), the “height of the cup” value is listed as around 4 Å and the “width of the cup” value is listed as around 12 Å. Further, the “peak current density relative to blank” value in [6] came to 1.6 times. Further, in data set [7] (H-cell, −0.65V vs Hg/HgO), the “increment of fluorenol oxidation” value is 1.6 times. In data set [7] (applied potential of −0.65V vs Hg/HgO), this compound had a KIE value of 2.42. Moreover, the “deuterated fluorenol oxidation rate enhancement” value in data set [7] (deuterated fluorenol) turned out to be 1.4 times. Further, in data set [8], the “reduction of radical concentration estimated from EPR peak intensity” value is 60%. In addition, the pKa entry in [9] is “around 13.5”.
As for `O=C(O)c1cc(S(=O)(=O)O)cc2c1-c1ccc(S(=O)(=O)O)cc1C2O` (centres unmarked) [FLOH, 2,7-sulfonate-4-carboxylate fluorenol], in data set [1] (1H PFG NMR at 25° C.), the “D(FLOH - H6)” value is 2.43 ×10^−10 m^2/s, the “D(FLOH or FL)” value is 2.45 ×10^−10 m^2/s and the “D(H2O)” value is recorded as 13.6 ×10^−10 m^2/s. In [1], the “D(Na^+)” value is 6.72 ×10^−10 m^2/s. Besides, in [1] (setting [10]), the “D(FLOH or FL)/D(H2O)” value was found to be 0.18 and the “D(Na^+)/D(H2O)” value turned out to be 0.49. Also, the Diameter in data set [2] was 12.32 ± 1.84 Å Å.
Take `OCC(F)(F)F` [CF3CH2O]: in data set [9], the “H—B pKa” value was 11.4-12.4.
`Oc1ccc(O)cc1`: the “H—B pKa” value in data set [9] is 9.7.
